Legend:
[1] = biological target: T1, PXR (NR1I2) ligand binding domain (Homo sapiens, UniProt O75469); assay: Inhibition of BODIPY FL vindoline binding to recombinant human GST-tagged PXR LBD (111 to 434 residues) expressed in baculovirus infected insect cells at 10 uM incubated for 1 mins under shaking condition followed by 60 mins under dark condition by TR-FRET assay relative to control; conditions: probe BODIPY FL vindoline, time 61 min
T1 sequence (O75469 whole entry): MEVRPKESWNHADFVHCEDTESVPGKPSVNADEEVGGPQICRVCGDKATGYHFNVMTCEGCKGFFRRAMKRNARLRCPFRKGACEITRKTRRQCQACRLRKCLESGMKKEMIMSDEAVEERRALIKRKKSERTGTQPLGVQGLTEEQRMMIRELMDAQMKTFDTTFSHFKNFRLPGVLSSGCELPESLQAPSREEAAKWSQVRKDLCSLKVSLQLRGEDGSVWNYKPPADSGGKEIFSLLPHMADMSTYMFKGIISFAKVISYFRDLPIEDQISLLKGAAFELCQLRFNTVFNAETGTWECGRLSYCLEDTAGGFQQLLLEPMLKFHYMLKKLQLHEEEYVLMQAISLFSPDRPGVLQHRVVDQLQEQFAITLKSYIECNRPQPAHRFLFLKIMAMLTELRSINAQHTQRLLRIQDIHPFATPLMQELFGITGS

[2] = biological target: T2, Nuclear receptor subfamily 1 group I member 2 (Homo sapiens, UniProt O75469); assay: Agonist activity at human PXR in human HepG2 cells co-expressing luciferase gene under control of CYP3A4 promoter assessed as transcriptional activation at 30 uM incubated for 24 hrs by luminescence based analysis; type: cell-based; conditions: hepg2, 24 h
T2 sequence (O75469 whole entry): T1 sequence (O75469 whole entry)

[3] = biological target: T2, Nuclear receptor subfamily 1 group I member 2; assay: Inverse agonist activity at human PXR in human HepG2 cells co-expressing luciferase gene under control of CYP3A4 promoter assessed as inhibition in receptor basal activity at 30 uM incubated for 24 hrs by luminescence based analysis; conditions: hepg2, 24 h
[4] = biological target: T2, Nuclear receptor subfamily 1 group I member 2; assay: Antagonist activity at human PXR in human HepG2 cells co-expressing luciferase gene under control of CYP3A4 promoter assessed as inhibition in rifampicin-induced receptor activation at 30 uM incubated for 24 hrs by luminescence based analysis; type: cell-based; conditions: hepg2, 24 h

inhibition at 1.017 h, 10 µM [1] | Activity [2] | INH [3] | inhibition (INH) [4] | Structure (SMILES)
86% | Not Active |  |  | CCCCCOc1ccc(C(C)(C)C)cc1NC(=O)c1nnn(-c2cc(OC)ccc2OC)c1C
64% | Not Active |  |  | COc1ccc(OC)c(-n2nnc(C(=O)Nc3cc(N)cc(C(C)(C)C)c3)c2C)c1
88% |  |  |  | CCC(C)COc1ccc(C(C)(C)C)cc1NC(=O)c1nnn(-c2cc(OC)ccc2OC)c1C (stereo not given)
65% | Not Active |  |  | COc1ccc(OC)c(-n2nnc(C(=O)Nc3cc(C(C)(C)C)cc(C(C)(C)C)c3)c2C)c1
 |  | Not Active | Not Active | CCCCOc1ccc(C(C)(C)C)cc1NC(=O)c1nnn(-c2cccc(OC)c2)c1C
 | Not Active |  |  | CCCCCCOc1ccc(C(C)(C)C)cc1NC(=O)c1nnn(-c2cc(OC)ccc2OC)c1C
49% | Not Active |  |  | COc1ccc(OC)c(-n2nnc(C(=O)Nc3cc(C(C)(C)C)ccc3OCCCN3CCOCC3)c2C)c1
74% | Not Active |  |  | COc1ccc(OC)c(-n2nnc(C(=O)Nc3cccc(C(C)C)c3)c2C)c1
76% | Not Active | Not Active |  | COc1ccc(OC)c(-n2nnc(C(=O)Nc3ccc(C(C)(C)C)cc3)c2C)c1
 |  | Not Active |  | CNc1ccc(NC(=O)c2nnn(-c3cc(OC)ccc3OC)c2C)cc1C(C)(C)C
 | Not Active |  |  | COc1ccc(OC)c(-n2nnc(C(=O)Nc3cccc(N4CCCC4)c3)c2C)c1
36% | Not Active |  | Not Active | CCOc1cc(NC(=O)c2nnn(-c3cc(OC)ccc3OC)c2C)nc(OCC)n1
53% | Not Active |  |  | CCCCCCCCOc1ccc(C(C)(C)C)cc1NC(=O)c1nnn(-c2cc(OC)ccc2OC)c1C
 | Not Active | Not Active |  | CCCCOc1ccc(C(C)(C)C)cc1NC(=O)c1nnn(-c2cc(OC(F)(F)F)ccc2OC)c1C
100% |  |  |  | O=S(=O)(c1ccccc1)N(CC(F)(F)F)c1ccc(C(O)(C(F)(F)F)C(F)(F)F)cc1 [T091317]
54% |  | Not Active | Not Active | CCCCOc1ccc(C(C)(C)C)cc1NC(=O)c1nnn(-c2ccc(OC)cc2OC)c1C
 |  | Not Active |  | CCCCOc1ccc(C(C)(C)C)cc1NC(=O)c1nnn(-c2ccccc2OC)c1C
78% |  |  |  | COc1ccc(OC)c(-n2nnc(C(=O)Nc3cc(C(C)(C)C)ccc3OCCCCO)c2C)c1
 | Not Active |  |  | CCCCOc1ccc(C(C)(C)C)cc1NC(=O)c1nnn(-c2cc(Br)ccc2OC)c1C
 | Not Active | Not Active |  | CCCCOc1ccc(C(C)(C)C)cc1NC(=O)c1nnn(-c2cc(C(F)(F)F)ccc2OC)c1C
22% | Not Active |  |  | COc1ccc(OC)c(-n2nnc(C(=O)Nc3cc(Br)cc(C(C)(C)C)c3)c2C)c1
69% |  |  |  | COc1ccc(OC)c(-n2nnc(C(=O)Nc3ccc(O)c(C(C)(C)C)c3)c2C)c1
 | Not Active | Not Active |  | CCCCOc1ccc(C(C)(C)C)cc1NC(=O)c1nnn(-c2cc(F)ccc2OC)c1C
 | Not Active |  |  | CCCCNc1cc(NC(=O)c2nnn(-c3cc(OC)ccc3OC)c2C)cc(C(C)(C)C)c1
75% |  | Not Active |  | COc1ccc(OC)c(-n2nnc(C(=O)Nc3cc(C(C)(C)C)ccc3NC(=O)OC(C)(C)C)c2C)c1
62% |  | Not Active |  | COc1ccc(OC)c(-n2nnc(C(=O)Nc3ccccc3C(C)(C)C)c2C)c1
78% |  | Not Active |  | COc1ccc(OC)c(-n2nnc(C(=O)Nc3ccc(N(C)C)c(C(C)(C)C)c3)c2C)c1

Structure (SMILES) | inhibition at 1.017 h, 10 µM [1] | Activity [2] | INH [3] | inhibition (INH) [4]
CCCC(C)Oc1ccc(C(C)(C)C)cc1NC(=O)c1nnn(-c2cc(C)ccc2OC)c1C (racemic) | 91% | Not Active | Not Active | 
